{"source": "patent US5466716A", "about": "“Liposomal trimethylsphingosine” (The Biomembrane Institute, priority 1994, dated 1995)", "system": "protein kinase-C", "assay": "protein kinase-C activity (A431 cell PK-C, liposome method, histone III-S or myelin basic protein)", "format": "biochemical, human", "settings": "histone III-S and myelin basic protein substrates, FIG. 4", "description": "FIGS. 4A and 4B depict the effect of sphingosine derivatives on protein kinase-C activity in A431 cells. The standard liposome method of Kraft and Anderson (Nature 301, 621, 1983) was used. […] In FIG. 4B radioactive incorporation into histone III-s is depicted on the ordinate. In both panels SP represents sphingosine, MMS represents N-monomethylsphingosine, DMS represents N,N-dimethylsphingosineand TMS represents N,N,N-trimethylsphingosine.\nIn another in vitro assay, the influence of various compounds on PK-C activity can be monitored. Certain tumor cells present high levels of PK-C activity. The human epidermoid carcinoma cell line A-431 (ATCC No. CRL 1555) can be used in a bioassay for PK-C activity as described in Igarashi et al. (supra). Briefly, phosphatidylserine (5 μg/tube) and 1,2-diolein (0.05 μg/tube), with or without an appropriate quantity of a sphingosine derivative sample, are added in an organic solvent, ethanol or ethanol/chloroform, to a 1.5 ml tube (Sarstedt) and the mixture is evaporated under a N2 stream. The lipid mixture is sonicated in about 30 μl of 20 mM Tris-HCl (pH 7.5) for 30 minutes. The resulting liposomes are supplemented with a buffer mixture comprising 25 mM Tris-HCl (pH 7.5), 10 mM MgCl2, 400 μM EDTA, 50 μM EGTA, 500 μM CaCl2, 200 μg/ml histone III-S or myelin basic protein and 20 μM γ[^32 P]-ATP (2×10^6 cpm) to a final volume of about 90 μl. […]"}
{"smiles": "CCCCCCCCCCCCC/C=C/[C@@H](O)[C@H](CO)[N+](C)(C)C", "note": "[TMS, N,N,N-trimethylsphingosine]", "values": [{"measurement": "ability to inhibit PK-C", "value": "superior to the other compounds"}]}
